# In patent US9783545B2, “Pyrazolopyridazines and methods for treating retinal-degenerative diseases and hearing loss associated with usher syndrome” (Usher III Initiative, Inc., priority 2012, dated 2017):
# Molecular target: T1, N48K Clarin-1 (Homo sapiens, UniProt P58418, N48K)
# T1 construct: expressed in transfected cells
# T1 sequence (P58418 1-232 N48K): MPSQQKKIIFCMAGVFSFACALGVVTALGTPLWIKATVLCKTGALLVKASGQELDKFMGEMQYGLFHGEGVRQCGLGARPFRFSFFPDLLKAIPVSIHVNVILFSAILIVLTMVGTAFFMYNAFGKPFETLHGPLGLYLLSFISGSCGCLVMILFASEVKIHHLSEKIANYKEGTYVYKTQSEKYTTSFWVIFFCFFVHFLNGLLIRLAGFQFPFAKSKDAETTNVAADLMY
# Assay: Restoration of expression of N48K Clarin-1, 24 hour incubation (high content imaging of HA-tagged N48K Clarin-1)
# Assay type: cell-based
# Conditions: HEK293-Clarin-1 N48K-HA D9 cell line, 24 hr incubation with compound; read-out: IC50 (the source's name)
# Experimental: Assay Method Showing Activity of Compounds of the Invention that Restore Expression of N48K Clarin-1 (24 hour incubation)
# Clarin-1 is the protein encoded by the gene mutated in Usher III Syndrome (Adato et al., 2002). The most prevalent mutation in Clarin-1 in North America is N48K, which is reported to cause loss of glycosylation and a trafficking defect (Tian et al., 2009). […] Thus it is believed that restoring the trafficking of N48K Clarin-1 to the cell surface provides an avenue of intervention for Usher III Sydrome.
# In a typical experiment, these cells were seeded on collagen-coated 96-well plates at a cell density of 20,000 cells per well in Dulbecco's Modified Eagle Medium (DMEM) contain 10% fetal bovine serum in a humidified incubator at 37° C., 5% CO2. After an overnight incubation, compounds were added for a 24 hr incubation in DMEM medium contain 10% fetal bovine serum in a humidified incubator at 37° C., 5% CO2. As a negative control, DMSO was used at 0.25% final concentrations. Compounds were typically tested in triplicate fashion. After the 24 hr incubation with compounds, the cells were fixed by the addition of 10% buffered formalin to the wells to achieve a final concentration of 4% formalin. After a 20 min fixation at room temperature, wells were washed three times with phosphate-buffered saline (PBS) containing Triton X-100 (0.02 phosphate, 150 mM NaCl, 0.1% Triton X-100).
# The HA-tagged N48K Clarin-1 was detected with an antibody against the HA tag (HA.11 Clone 16B12 Monoclonal antibody, Covance #MMS-101P) at a dilution of 1:1000 in PBS containing Triton X-100. After a 90 min incubation, wells were washed three times with PBS containing Triton X-100, and a secondary antibody (Goat anti-mouse IgG-Cy3 (1.5 mg/ml), Jackson IR Europe #115165003) was added to the wells at a dilution of 1:250 in PBS containing Triton X-100 for 45 min. Wells were subsequently washed three times with PBS containing Triton X-100, and a final staining for nuclei was performed by the addition of DAPI (4′,6-diamidino-2-phenylindole) at a dilution of 1:10,000. The imaging of the stained cells was performed on an InCell 1000 High Content Imager (GE Healthcare), reading out the Cy3 channel for N48K Clarin-1 and the DAPI channel for nuclei. The images were analyzed and quantitated using a specific algorithm. This algorithm measured the HA-Clarin-1 staining for each cell based on the additional nuclear segmentation of the DAPI signal (FIG. 1). This algorithm measured the intensity per cell, and thus it is less sensitive for variation in cell number. Per well, approximately 2,000 cells were measured to achieve an average density per cell measurement. FIG. 1 illustrates high content analysis. DAPI-stained nuclei are used to perform segmentation of the image into individual cells. The density observed in the N48K Clarin-1 channel (Cy3) is then calculated per cell averaged over a field.
row,Compound,EC50
1,"Cc1nn(C)c2nnc(-c3ccccc3)c(F)c12 [Compound 24, 4-fluoro-1,3-dimethyl-5-phenyl-pyrazolo[3,4-c]pyridazine]",≤ 2000 nM
2,"O=C(Cn1nc(C2CC2)c2c(Cl)c(-c3ccccc3)nnc21)N1CCCC1 [Iee, 2-(4-chloro-3-cyclopropyl-5-phenyl-pyrazolo[3,4-c]pyridazin-1-yl)-1-pyrrolidin-1-yl-ethanone]",2000 to 5000 nM
3,"FC(F)(F)Cn1nc(-c2ccccc2)c2c(Cl)c(-c3ccccc3)nnc21 [IIk, 4-chloro-3,5-diphenyl-1(2,2,2-trifluoroethyl)pyrazolo[3,4-c]pyridazine]",≤ 2000 nM
4,"O=C1CCCN1CCn1nc(-c2cccc(F)c2)c2c(Cl)c(-c3ccccc3)nnc21 [IIr, 1-[2-[4-chloro-3-(3-fluorophenyl)-5-phenyl-pyrazolo[3,4-c]pyridazin-1-yl]ethyl]pyrrolidin-2-one]",≤ 2000 nM
5,"Cc1nn(C)c2nnc(-c3ccccc3)c(Br)c12 [Compound 23, 4-bromo-1,3-dimethyl-5-phenyl-pyrazolo[3,4-c]pyridazine]",2000 to 5000 nM
6,"CN1CCN(CCn2nc(-c3ccc(C(F)(F)F)nc3)c3c(Cl)c(-c4ccccc4)nnc32)CC1 [Ih, 4-chloro-1-(2-(4-methylpiperazin-1-yl)ethyl)-5-phenyl-3-(6-(trifluoromethyl)pyridin-3-yl)-1H-pyrazolo[3,4-c]pyridazine]",2000 to 5000 nM
7,"Cc1nn(CCO)c2nnc(-c3ccccc3)c(Cl)c12 [Ihh, 2-(4-chloro-3-methyl-5-phenyl-pyrazolo[3,4-c]pyridazin-1-yl)ethanol]",≤ 2000 nM
8,"CN1CCN(CCn2nc(C3=CCOCC3)c3c(Cl)c(-c4ccccc4)nnc32)CC1 [If, 4-chloro-3-(3,6-dihydro-2H-pyran-4-yl)-1-(2-(4-methylpiperazin-1-yl)ethyl)-5-phenyl-1H-pyrazolo[3,4-c]pyridazine]",≤ 2000 nM
9,"Cn1nc(-c2ccccc2)c2c(Cl)c(-c3ccsc3)nnc21 [IIIc, 4-chloro-1-methyl-3-phenyl-5-(3-thienyl)pyrazolo[3,4-c]pyridazine]",≤ 2000 nM
10,"Cn1nc(-c2ccccc2)c2c(Cl)c(-c3cccnc3)nnc21 [IIId, 4-chloro-1-methyl-3-phenyl-5-(3-pyridyl)pyrazolo[3,4-c]pyridazine]",≤ 2000 nM
11,"Clc1c(-c2ccccc2)nnc2[nH]nc(Br)c12 [Ibb, 3-bromo-4-chloro-5-phenyl-1H-pyrazolo[3,4-c]pyridazine]",2000 to 5000 nM
12,"Cn1nc(-c2cccnc2)c2c(Cl)c(-c3ccccc3)nnc21 [Compound 26, 4-chloro-1-methyl-5-phenyl-3-(3-pyridyl)pyrazolo[3,4-c]pyridazine]",≤ 2000 nM
13,"O=C(Cn1nc(C2=CCCC2)c2c(Cl)c(-c3ccccc3)nnc21)N1CCCC1 [In, 2-(4-chloro-3-(cyclopent-1-en-1-yl)-5-phenyl-1H-pyrazolo[3,4-c]pyridazin-1-yl)-1-(pyrrolidin-1-yl)ethanone]",≤ 2000 nM
14,"Cc1nn(C)c2nnc(-c3cccc(F)c3)c(Cl)c12 [Compound 25, 4-chloro-5-(3-fluorophenyl)-1,3-dimethyl-pyrazolo[3,4-c]pyridazine]",≤ 2000 nM
15,"Clc1c(-c2ccccc2)nnc2c1c(-c1ccccc1)nn2Cc1ccncc1 [IIo, 4-chloro-3,5-diphenyl-1-(4-pyridylmethyl)pyrazolo[3,4-c]pyridazine]",≤ 2000 nM
16,"Cc1nn(C)c2nnc(-c3ccccc3)c(Cl)c12 [Compound 22, 4-chloro-1,3-dimethyl-5-phenyl-pyrazolo[3,4-c]pyridazine]",≤ 2000 nM
17,"CN1CCN(CCn2nc(I)c3c(Cl)c(-c4ccccc4)nnc32)CC1 [Ia, 4-Chloro-3-iodo-1-(2-(4-methylpiperazin-1-yl)ethyl)-5-phenyl-1H-pyrazolo[3,4-c]pyridazine]",≤ 2000 nM
18,"O=C(Cn1nc(C(F)(F)F)c2c(Cl)c(-c3ccccc3)nnc21)N1CCCC1 [Iaa, 2-[4-chloro-5-phenyl-3-(trifluoromethyl)pyrazolo[3,4-c]pyridazin-1-yl]-1-pyrrolidin-1-yl-ethanone]",2000 to 5000 nM
